According to US20260297070A1, “CYCLIC [COMPOUND LEFT OUT] WRN INHIBITORS” (Nimbus Wadjet, Inc., priority 2023, published 2026):

Target: T1, human Werner helicase (WRN-BV08, Uniprot Q14191, amino acids 517-1235 with L1074F point mutation) (Homo sapiens, UniProt Q14191, L1074F)
T1 construct: Uniprot Q14191, amino acids 517-1235 with L1074F point mutation; TEV-cleavable 8×His (C, cleaved yes); made in house; host or cells: Sf9 insect cells (baculovirus)
Assay: WRN (BV08) ADP-Glo Assay
Format: biochemical
Conditions: 0.15 nM WRN, 5 μM ATP, 0.1 nM DNA duplex, 15 min preincubation, 60 min at 25° C., pH 7.5, 1% DMSO; read-out: ADP-Glo_hWRN_IC50
Source text: Example 2: WRN (BV08) ADP-Glo Assay Protocol
Bovine skin gelatin (BSG), dimethyl sulfoxide (DMSO), Pluronic F-127 and Tris(2-carboxyethyl)phosphine hydrochloride solution (TCEP) were purchased from Sigma-Aldrich at the highest level of purity possible. Bicine buffer solution was purchased from Alfa Aesar and compound NSC-617145 was purchased from Tocris. DNA duplex was synthesized at BGI (Shenzhen, China) and was composed of strand 1 with the sequence 5′-[…]-3′ (SEQ ID NO.: 1) and strand 2 with the sequence 5′-[…]-3′ (SEQ ID NO.: 2). DNA strands were annealed by heating to 95° C. for 5 minutes followed by slow cooling to room temperature. Compounds in 100% DMSO (0.1 μl) were spotted into a 384-well white polystyrene Optiplate-384 (Perkin Elmer) assay plate using a LabCyte Echo 550 (Agilent). DMSO (0.1 μl) was added to columns 12, rows A-H and column 24, rows I-P for the maximum signal control. Compound NSC-617145 (0.1 μl) was added to columns 12, rows I-P and 24, rows A-H for the minimum signal control (100% inhibition). Compounds/DMSO were preincubated for 15 minutes at 25° C. with 5 uL 2×WRN (BV08), prepared as described below, in assay buffer containing 20 mM Bicine (pH=7.5), 1 mM MgCl2, 10 mM KCl, 0.1% Pluronic F-127, 0.005% BSG, 1 mM TCEP. The reaction was initiated by the addition of 5 μl 2× substrate mixture in assay buffer and incubated for 60 minutes at 25° C. The final concentrations of the assay components were 0.15 nM WRN, 5 μM ATP, and 0.1 nM DNA duplex. The final DMSO concentration was 1% and the reference compound concentration (NSC-617145) used for the minimal signal control was 20 μM. The reaction was stopped by the addition of the ADP-Glo Kit components (Promega) as directed and the relative luminescence units (RLU) were read on an Envision 2104 (Perkin Elmer).
% Inhibition Calculation:
Where RLU=relative luminescence units, sample=signal in sample well, and MIN and MAX are the respective minimum and maximum signal controls.
Four-Parameter IC50 Fit Equation:
Where top and bottom are normally allowed to float but may be fixed at 100 or 0 respectively in a 3-parameter fit. Y is the % inhibition and X is the compound concentration.
Molecular Biology and virus production. The DNA encoding human Werner helicase (Uniprot Q14191, amino acids 517-1235 with L1074F point mutation) was generated with codon-optimization for E. coli expression and subcloned into the pFastBac vector with a TEV cleavable 8×His tag (WRN-BV08). The baculovirus from the expression plasmid WRN-BV08 was generated from transfection and amplification following the manufacturer's instructions.
Sf9 cells grown in SF900II media were infected with 1:200 WRN-BV08 P2 virus and incubated for protein expression for 72 h at 27° C. The WRN protein was purified using the following protocol. The cell pellets were thawed and resuspended in buffer A (50 mM Tris, pH 7.5, 500 mM NaCl, 1 mM TCEP, 10% Glycerol) supplemented with 0.5% CHAPS, 1 mM [COMPOUND LEFT OUT], 1 μg/mL Leupeptin, 1 μg/mL Pepstatin, and the Pierce Universal Nuclease and cocktail tablet. Cleared lysates were loaded onto a Ni Sepharose™ excel column and washed with buffer A and bound protein was eluted with buffer A supplemented with 300 mM imidazole. The eluted protein was dialyzed against buffer A and digested by His-tagged TEV (1:5 ratio) overnight at 4° C. ZnCl2 was added into the sample at final 15 μM before loading onto a second Ni Sepharose™ excel column. Untagged WRN protein was eluted from the column with buffer A supplemented with 20 mM imidazole, dialyzed overnight into buffer B (50 mM Tris, pH 7.5, 1 mM TCEP, 10% Glycerol) supplemented with 150 mM NaCl and loaded onto a Heparin column. Proteins were eluted with a step gradient of buffer B supplemented with 150 mM, 200 mM, 300 mM and 500 mM NaCl. […]

T1 sequence (Q14191 with tags, fused parts or gaps L1074F limits assumed): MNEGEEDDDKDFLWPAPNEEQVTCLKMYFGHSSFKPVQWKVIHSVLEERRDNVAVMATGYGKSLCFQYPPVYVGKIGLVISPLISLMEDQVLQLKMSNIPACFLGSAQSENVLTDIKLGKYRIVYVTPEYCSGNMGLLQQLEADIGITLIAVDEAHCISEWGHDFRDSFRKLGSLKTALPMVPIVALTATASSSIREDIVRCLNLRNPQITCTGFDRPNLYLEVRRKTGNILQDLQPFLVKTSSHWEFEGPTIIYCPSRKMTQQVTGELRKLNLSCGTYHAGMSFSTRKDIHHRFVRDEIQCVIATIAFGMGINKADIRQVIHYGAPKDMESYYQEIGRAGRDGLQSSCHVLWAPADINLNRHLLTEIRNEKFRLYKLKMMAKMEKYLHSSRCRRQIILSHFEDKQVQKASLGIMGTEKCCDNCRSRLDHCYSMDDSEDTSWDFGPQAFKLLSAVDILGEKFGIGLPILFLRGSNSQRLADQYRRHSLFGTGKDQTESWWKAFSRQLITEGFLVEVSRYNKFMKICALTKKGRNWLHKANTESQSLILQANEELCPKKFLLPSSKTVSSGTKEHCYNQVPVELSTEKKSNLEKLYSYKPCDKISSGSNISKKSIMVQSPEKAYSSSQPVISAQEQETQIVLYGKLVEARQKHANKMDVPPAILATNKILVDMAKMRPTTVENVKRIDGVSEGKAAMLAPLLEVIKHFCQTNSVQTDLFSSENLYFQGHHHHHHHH

Row | Compound | IC50
1 | COc1cc(CN(C(=O)Cc2ccc(-c3ccc(F)cc3O)nc2)C2C=CS(=O)(=O)C2)ccn1 (single isomer, unassigned) [I-353] | 10 to 50 µM
2 | CN(C)C(=O)C(C(=O)N(Cc1ccncc1)C1C=CS(=O)(=O)C1)c1ccc(-c2ccc(F)cc2)cc1 (single isomer, unassigned) [I-362, (2R**)-N′-[(3R*)-1,1-dioxo-2,3-dihydro-1lambda6-thiophen-3-yl]-2-{4′-fluoro-[1,1′-biphenyl]-4-yl}-N,N-dimethyl-N′-[(pyridin-4-yl)methyl]propanediamide] | > 50 µM
3 | COc1cc(CN(C(=O)C(OC)c2ccc(-c3ccc(F)cc3)cc2F)C2C=CS(=O)(=O)C2)ccn1 (single isomer, unassigned) [I-366, (2R*)-2-{3,4′-difluoro-[1,1′-biphenyl]-4-yl}-N-[(3R**)-1,1-dioxo-2,3-dihydro-1lambda6-thiophen-3-yl]-2-methoxy-N-[(2-methoxypyridin-4-yl)methyl]acetamide] | > 50 µM
4 | CN(C)C(=O)C(C(=O)N(Cc1ccncc1)C1C=CS(=O)(=O)C1)c1ccc(-c2ccc(F)cc2)cc1 (single isomer, unassigned) [I-374, (2R**)-N′-[(3R*)-1,1-dioxo-2,3-dihydro-1lambda6-thiophen-3-yl]-2-{4′-fluoro-[1,1′-biphenyl]-4-yl}-N,N-dimethyl-N′-[(pyridin-4-yl)methyl]propanediamide] | > 50 µM
5 | CN(C)C(=O)C(C(=O)N(Cc1ccncc1)C1C=CS(=O)(=O)C1)c1ccc(-c2ccc(F)cc2)cc1 (single isomer, unassigned) [I-375, (2R**)-N′-[(3R*)-1,1-dioxo-2,3-dihydro-1lambda6-thiophen-3-yl]-2-{4′-fluoro-[1,1′-biphenyl]-4-yl}-N,N-dimethyl-N′-[(pyridin-4-yl)methyl]propanediamide] | > 50 µM
6 | CC(=O)N(C)C(C(=O)N(Cc1ccncc1)C1C=CS(=O)(=O)C1)c1ccc(-c2ccc(F)cc2)cc1 (single isomer, unassigned) [I-378] | > 50 µM
7 | COc1cc(CN(C(=O)Cc2ccc(C(F)(F)F)cc2)C2C=CS(=O)(=O)C2)ccn1 (single isomer, unassigned) [I-382] | > 50 µM
8 | COc1cc(CN(C(=O)Cc2ccc(-c3ccc(F)c(F)c3)cc2F)C2C=CS(=O)(=O)C2)ccn1 (single isomer, unassigned) [I-400] | > 50 µM
9 | COc1cc(CN(C(=O)C(OC)c2ccc(-c3ccc(F)cc3)cc2F)C2C=CS(=O)(=O)C2)ccn1 (single isomer, unassigned) [I-404, (2R*)-2-{3,4′-difluoro-[1,1′-biphenyl]-4-yl}-N-[(3R**)-1,1-dioxo-2,3-dihydro-1lambda6-thiophen-3-yl]-2-methoxy-N-[(2-methoxypyridin-4-yl)methyl]acetamide] | > 50 µM
10 | COc1cc(CN(C(=O)C(OC)c2ccc(-c3ccc(F)cc3)cc2F)C2C=CS(=O)(=O)C2)ccn1 (single isomer, unassigned) [I-405, (2R*)-2-{3,4′-difluoro-[1,1′-biphenyl]-4-yl}-N-[(3R**)-1,1-dioxo-2,3-dihydro-1lambda6-thiophen-3-yl]-2-methoxy-N-[(2-methoxypyridin-4-yl)methyl]acetamide] | > 50 µM
11 | CC(C)(O)c1cc(CN(C(=O)Cc2ccc(-n3cccc3)cc2F)C2C=CS(=O)(=O)C2)ccn1 (single isomer, unassigned) [I-469] | > 50 µM
12 | COC(C(=O)N(Cc1ccncc1)C1C=CS(=O)(=O)C1)c1ccc(-c2ccc(F)cc2)cc1 (single isomer, unassigned) [I-476, (2R*)-N-[(3R**)-1,1-dioxo-2,3-dihydro-1lambda6-thiophen-3-yl]-2-{4′-fluoro-[1,1′-biphenyl]-4-yl}-2-methoxy-N-[(pyridin-4-yl)methyl]acetamide] | > 50 µM
13 | O=C(Cc1ccc(-n2cccc2)cc1)N(Cc1ccccc1)C1C=CS(=O)(=O)C1 (single isomer, unassigned) [I-488] | > 50 µM
14 | O=C(Cc1ccc(-n2cccc2)cc1)N(Cc1ccncc1)C1C=CS(=O)(=O)C1 (single isomer, unassigned) [I-490] | > 50 µM
15 | O=C(Cc1ccc(-n2cccc2)cc1F)N(Cc1ccncc1)C1C=CS(=O)(=O)C1 (single isomer, unassigned) [I-520] | > 50 µM
16 | O=C(NC(Cc1c[nH]c2ccccc12)C(=O)N(Cc1ccncc1)C1C=CS(=O)(=O)C1)c1ccc(F)cc1 (single isomer, unassigned) [I-561] | > 50 µM
17 | COC(C(=O)N(Cc1ccncc1)C1C=CS(=O)(=O)C1)c1ccc(-c2ccc(F)cc2)cc1 (single isomer, unassigned) [I-575, (2R*)-N-[(3R**)-1,1-dioxo-2,3-dihydro-1lambda6-thiophen-3-yl]-2-{4′-fluoro-[1,1′-biphenyl]-4-yl}-2-methoxy-N-[(pyridin-4-yl)methyl]acetamide] | > 50 µM
18 | COc1cc(CN(C(=O)C(C(=O)N(C)C)c2ccc(-c3ccc(F)c(F)c3)cc2F)C2C=CS(=O)(=O)C2)ccn1 (single isomer, unassigned) [I-577, (2R**)-N-[(3R*)-1,1-dioxo-2,3-dihydro-1lambda6-thiophen-3-yl]-N-[(2-methoxypyridin-4-yl)methyl]-N′,N′-dimethyl-2-{3,3′,4′-trifluoro-[1,1′-biphenyl]-4-yl}propanediamide] | < 0.5 µM
19 | COC(C(=O)N(Cc1ccnc(C(C)(C)O)c1)C1C=CS(=O)(=O)C1)c1ccc(-c2ccc(F)c(F)c2)cc1F (single isomer, unassigned) [I-578, (2R*)-N-[(3R**)-1,1-dioxo-2,3-dihydro-1lambda6-thiophen-3-yl]-N-{[2-(2-hydroxypropan-2-yl)pyridin-4-yl]methyl}-2-methoxy-2-{3,3′,4′-trifluoro-[1,1′-biphenyl]-4-yl}acetamide] | 10 to 50 µM
20 | O=C(Cn1cc(-c2ccc(F)cc2)cn1)N(Cc1nc(C2CC2)cs1)C1C=CS(=O)(=O)C1 (single isomer, unassigned) [I-601] | 0.5 to 5 µM
21 | O=C(Cn1cc(-c2ccc(F)cc2)cn1)N(Cc1nc(C2CC2)cs1)C1C=CS(=O)(=O)C1 (single isomer, unassigned) [I-602] | < 0.5 µM
22 | O=C(Cn1cc(-c2ccc(F)c(F)c2)cn1)N(Cc1nc(C2CC2)cs1)C1C=CS(=O)(=O)C1 (single isomer, unassigned) [I-604] | 0.5 to 5 µM
23 | CC(C)(O)c1cc(CN(C(=O)Cn2ccc(-c3ccc(F)cc3)cc2=O)C2C=CS(=O)(=O)C2)ccn1 (single isomer, unassigned) [I-606] | < 0.5 µM
24 | Cc1cccn1-c1ccc2c(c1)CC(C(=O)N(Cc1ccnc(C(C)(C)O)c1)[C@@H]1C=CS(=O)(=O)C1)O2 (single isomer, unassigned) [I-607] | < 0.5 µM
25 | CC(C)(O)c1cc(CN(C(=O)C(OC(F)F)c2ccc(-c3ccc(F)c(F)c3)cc2F)[C@@H]2C=CS(=O)(=O)C2)ccn1 (single isomer, unassigned) [I-632] | < 0.5 µM
26 | CN(C)C(=O)OC(C(=O)N(Cc1ccnc(C(C)(C)O)c1)[C@@H]1C=CS(=O)(=O)C1)c1ccc(-c2ccc(F)c(F)c2)cc1F (single isomer, unassigned) [I-636] | 10 to 50 µM
27 | CC(C)(O)c1cc(CN(C(=O)Cn2cc(-c3ccc(C(F)(F)F)cc3)cn2)C2C=CS(=O)(=O)C2)ccn1 (single isomer, unassigned) [I-638] | < 0.5 µM
